Test results as given in patent publication US4585777A, “(-)-Trans-4-(4-fluorophenyl)-3-(4-methoxyphenoxy)methylpiperidine for potentiating 5-HT” (A/S Ferrosan, priority 1984, dated 1986).

Tests used:
in vivo = conditions: mouse, in vivo, sc, TI (Therapeutic Index), 001/173, LD50/ED50, mice s.c.
Text: (§1) (J. Buus Lassen, European Journal of Pharmacology 47, 351-358 (1978)). See also Squires in Acta Pharmacol. et Toxicol, 1972, 31 Suppl. 1,35 for a description of a further procedure for measurement of the same 5-HT uptake-inhibitory phenomenon.

mice [1] = assay: in vivo; conditions: for FG 7080 is better by: T.I. Factor: factor by which FG 7080 is better than the listed compound; for FG 7080 is better by: T.I. %: percent by which FG 7080 is better than the listed compound; for TI (Therapeutic Index), 001/173: LD50/ED50, mice s.c.
Text: as §1

[2] = Acute Toxicity in Mice (Procedure/Test 001); format: in vivo; conditions: mouse, in vivo, sc, lethality at 24 hours, water-soluble salt
Text: (§2) II. Acute Toxicity in Mice (Procedure 001)
(§3) Results are expressed as LD50 = . . . mg/kg s.c.

5-HT uptake = assay: Potentiation of 5-HTP (5-Hydroxytryptophane) induced hypermotility in mice (Procedure/Test 173); 5-HT potentiation or 5-HT uptake-inhibition; format: in vivo, mice (female, NMRI strain); conditions: for ED (2-fold activity of controls): Mus musculus, sc, read-out: Test 173: dose increasing the activity to double the activity of controls receiving 5-HTP alone (ED), mice, s.c.; for FG 7080 is better by: 5-HT Potentiation Factor: factor by which FG 7080 is better than the listed compound; for FG 7080 is better by: 5-HT Potentiation %: percent by which FG 7080 is better than the listed compound
Text: as §1
I. Potentiation of 5-HTP (5-Hydroxytryptophane) induced hypermotility in mice (Procedure 173)
(§4) This behavior is characterized by continuous jerky locomotion, head movements from side to side, abduction of the hind limbs, tremor, and lordosis.
Measurement of the motility after administration of test drugs to 5-HTP-pretreated mice is therefore used as a test for 5-HT-potentiation, which most probably proceeds through an inhibition of 5-HT uptake.
Method: Female mice of the NMRI strain weighing 20-22 g are used. The controls receive 5-HTP 150 mg/kg (15 ml/kg) i.p. (i.p.=intraperitoneally) and thirty (30) minutes later physiological saline (20 ml/kg) s.c. (s.c.=subcutaneously). The motility is measured by an Animex™ motimeter 45-75 minutes after 5-HTP administration. The test animals received test substances s.c. (20 ml/kg) instead of physiological saline. Five groups of two (2) mice are used for control and per dose of each test drug. the test substance is dosed according to the dose scale 1, 1.6, 2.5, 4, 6.3, and 10 mg/kg etc.
The best straight line is fitted through the points in a coordinate system (abscissa log dose, ordinate log activity). […] The activity of controls is investigated in thirty (30) groups of two (2) mice.

mice [3] = assay: Acute Toxicity in Mice (Procedure/Test 001); format: in vivo; conditions: s.c., lethality at 24 hours, water-soluble salt, 1440 min
Text: as §2, §3

mice [4] = conditions: Reference 6; cited from earlier work
mice [5] = assay: Locomotor activity / behavior in mice after 5-HTP, with or without pretreatment (background of Procedure 173); format: in vivo
Text: as §4
Therefore, increased 5-HT in brain seems to be necessary for development of the abnormal behavior, but catecholamine release is probably not related to hyperactivity.

[6] = References 1-4, cited from earlier work
[7] = 5-HTP 150 mg/kg i.p. 30 min before, motility 45-75 min after 5-HTP, water-soluble salt
[8] = versus (+) trans isomer FG 8035

COc1ccc(OC[C@@H]2CN(C)CC[C@H]2c2ccc(F)cc2)cc1 (relative stereo) [FG 98-I]
selectivity ratio (in vivo): 461
FG 7080 is better by: T.I. Factor (mice [1]): 2.17
FG 7080 is better by: T.I. % (mice [1]): 217%
LD50 at 24 h [2]: 600 mg/kg
ED (2-fold activity of controls) (5-HT uptake; [7]): 1.3 mg/kg
FG 7080 is better by: 5-HT Potentiation Factor (5-HT uptake): 1.3
FG 7080 is better by: 5-HT Potentiation % (5-HT uptake): 130%

COc1ccc(OC[C@@H]2CN(C)CC[C@H]2c2ccccc2)cc1 (relative stereo) [FG 4932, reference compound]
selectivity ratio (in vivo): 13
LD50 at 24 h [2]: 100 mg/kg
ED (2-fold activity of controls) (5-HT uptake; [7]): 7.7 mg/kg

COc1ccc(OC[C@@H]2CN(C)CC[C@H]2c2ccccc2)cc1 (single isomer, unassigned) [FG 4962, reference compound]
TI (Therapeutic Index), 001/173 (mice [1]): 53
FG 7080 is better by: T.I. Factor (mice [1]): 19.87
FG 7080 is better by: T.I. % (mice [1]): 1887%
Test 001: LD50 (mice [3]): 200 mg/kg
FG 7080 is better by: 5-HT Potentiation Factor (5-HT uptake): 3.8
Test 173: dose increasing the activity to double the activity of controls receiving 5-HTP alone (ED) (5-HT uptake; mice, s.c., 5-HTP 150 mg/kg i.p. 30 min before, motility 45-75 min after 5-HTP, water-soluble salt): 3.8 mg/kg
FG 7080 is better by: 5-HT Potentiation % (5-HT uptake): 380%

COc1ccc(OC[C@@H]2CN(C)CC[C@H]2c2ccccc2)cc1 (single isomer, unassigned) [FG 4963, reference compound]
TI (Therapeutic Index), 001/173 (mice [1]): 134
FG 7080 is better by: T.I. Factor (mice [1]): 7.46
FG 7080 is better by: T.I. % (mice [1]): 746%
LD50 at 24 h [2]: 375 mg/kg
ED (2-fold activity of controls) (5-HT uptake; [7]): 2.8 mg/kg
FG 7080 is better by: 5-HT Potentiation Factor (5-HT uptake): 2.8
FG 7080 is better by: 5-HT Potentiation % (5-HT uptake): 280%

COc1ccc(OC[C@@H]2CNCC[C@H]2c2ccccc2)cc1 (single isomer, unassigned) [FG 4996, reference compound]
selectivity ratio (in vivo): 14
Test 001: LD50 (mice [3]): 125 mg/kg
ED (2-fold activity of controls) (5-HT uptake; [7]): 9 mg/kg

CN1CC[C@@H](c2ccc(F)cc2)[C@H](COc2ccc3c(c2)OCO3)C1 (single isomer, unassigned) [FG 7043, reference compound]
selectivity ratio (in vivo): 63
LD50 at 24 h [2]: 250 mg/kg
ED (2-fold activity of controls) (5-HT uptake; [7]): 4 mg/kg

Fc1ccc([C@@H]2CCNC[C@H]2COc2ccc3c(c2)OCO3)cc1 (single isomer, unassigned) [FG 7051]
LD50 at 24 h [2]: 285 mg/kg

COc1ccc(OC[C@@H]2CNCC[C@H]2c2ccc(F)cc2)cc1 (single isomer, unassigned) [FG 7080, (-)-trans-4-(4-fluorophenyl)-3-(4-methoxyphenoxy)methylpiperidine]
TI (Therapeutic Index), 001/173 (mice [1]): 1000
Therapeutic Index compared with most structurally closely-related compounds, in words (mice [1]; Table I comparison): even more remarkably and unpredictably superior
superior as to Therapeutic Index, as % (mice [1]; versus FG 4996): > 7100%
superior by a factor as to Therapeutic Index (mice [1]; versus FG 4996): greater than 71 times
Therapeutic Index, as % (mice [1]; versus FG 7006): > 5500%
Therapeutic Index, times as great (mice [1]; versus FG 7006): more than 55 times
Therapeutic Index, as % (mice [1]; versus FG 8035): > 4100%
Therapeutic Index, times as great (mice [1]; versus FG 8035): more than 41 times
LD50 at 24 h [2]: 1000 mg/kg
ED (2-fold activity of controls) (5-HT uptake; [7]): 1 mg/kg
5-HT potentiation compared with most structurally closely-related compounds, in words (5-HT uptake; Table I comparison): remarkably and unpredictably superior
times as active in 5-HT potentiation (5-HT uptake; [8]): approximately 22 times
times as active in 5-HT potentiation, as % (5-HT uptake; [8]): ~2200%
superior as to 5-HT potentiation, as % (5-HT uptake; versus FG 4996): ~900%
superior by a factor as to 5-HT potentiation (5-HT uptake; versus FG 4996): approximately 9 times
5-HT potentiation activity, as % (5-HT uptake; versus FG 7006): ~2000%
5-HT potentiation activity, times as great (5-HT uptake; versus FG 7006): approximately 20 times

COc1ccc(OC[C@@H]2CN(C)CC[C@H]2c2ccc(F)cc2)cc1.Cl (single isomer, unassigned) [FG 8032, (+)-trans-4-(4-fluorophenyl)-3-[(4-methoxyphenoxy)methyl]-1-methylpiperidine hydrochloride]
TI (Therapeutic Index), 001/173 (mice [1]): 17
FG 7080 is better by: T.I. Factor (mice [1]): 58.82
FG 7080 is better by: T.I. % (mice [1]): 5882%
LD50 at 24 h [2]: 400 mg/kg
ED (2-fold activity of controls) (5-HT uptake; [7]): 23 mg/kg
FG 7080 is better by: 5-HT Potentiation Factor (5-HT uptake): 23
FG 7080 is better by: 5-HT Potentiation % (5-HT uptake): 2300%

COc1ccc(OC[C@@H]2CN(C)CC[C@H]2c2ccc(F)cc2)cc1 (single isomer, unassigned) [FG 8033, (-)-trans-4-(4-fluorophenyl)-3-[(4-methoxyphenoxy)-methyl]-1-methyl-piperidine]
TI (Therapeutic Index), 001/173 (mice [1]): 800
LD50 at 24 h [2]: 400 mg/kg
ED (2-fold activity of controls) (5-HT uptake; [7]): 0.5 mg/kg

CC(=O)O.COc1ccc(OC[C@@H]2CNCC[C@H]2c2ccc(F)cc2)cc1 (single isomer, unassigned) [FG 8035, (+)-trans-4-(4-fluorophenyl)-3-((4-methoxyphenoxy)methyl)piperidine acetate]
TI (Therapeutic Index), 001/173 (mice [1]): 24
LD50 at 24 h [2]: 530 mg/kg
ED (2-fold activity of controls) (5-HT uptake; [7]): 22 mg/kg

NNCc1cccc(O)c1 [3-hydroxybenzylhydrazine]
effect of pretreatment on the hyperactivity (5-HTP plus 5-HT-uptake blocker) (mice [4]): inhibited it significantly

N[C@@H](Cc1c[nH]c2ccc(O)cc12)C(=O)O [5-HTP, 5-Hydroxytryptophane]
motility / locomotor activity (mice [5]; 5-HTP 150 mg/kg): producing a small decrease of motility
motility / locomotor activity (mice [5]; 5-HTP 600 mg/kg): increasing the activity
concentration of NA and DA ([6]; high doses, parenteral): decrease the concentration of NA and DA
brain concentration of 5-HT ([6]; parenteral treatment): increases the brain concentration of 5-HT

CC(N)(Cc1ccc(O)cc1)C(=O)O (stereo not drawn) [α-methyl-p-tyrosine]
effect of pretreatment on the hyperactivity (5-HTP plus 5-HT-uptake blocker) (mice [4]): does not influence this hyperactivity
